Reference: patent US11254663B2 (BRISTOL-MYERS SQUIBB COMPANY, priority 2019, dated 2022)

Each compound was assayed against FXR (Homo sapiens (Human), UniProt Q96RI1) (assay: FXR EC50 (FXR agonist potency reported with each Example)).
Assay type: cell-based

FXR, sequence (Q96RI1 262-486): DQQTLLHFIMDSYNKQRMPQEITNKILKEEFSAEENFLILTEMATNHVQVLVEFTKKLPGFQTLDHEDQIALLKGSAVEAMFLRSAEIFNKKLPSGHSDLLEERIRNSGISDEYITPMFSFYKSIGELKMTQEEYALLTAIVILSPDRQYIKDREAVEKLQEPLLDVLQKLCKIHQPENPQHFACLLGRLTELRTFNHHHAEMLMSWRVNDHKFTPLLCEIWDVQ

Compound	EC50
CCn1cc(-c2cccc(N(CC34CCC(c5nc(C6CC6)no5)(CC3)CC4)C(=O)C34CC(F)(C3)C4)c2)oc1=O [Example 80, N-((4-(3-cyclopropyl-1,2,4-oxadiazol-5-yl)bicyclo[2.2.2]octan-1-yl)methyl)-N-(3-(3-ethyl-2-oxo-2,3-dihydrooxazol-5-yl)phenyl)-3-fluorobicyclo[1.1.1]pentane-1-carboxamide]	0.265 µM
CCn1cc(-c2cccc(N(CC34CCC(c5nc(C6CC6)no5)(CC3)CC4)C(=O)C3CC(F)(F)C3)c2)oc1=O [Example 81, N-((4-(3-cyclopropyl-1,2,4-oxadiazol-5-yl)bicyclo[2.2.2]octan-1-yl)methyl)-N-(3-(3-ethyl-2-oxo-2,3-dihydrooxazol-5-yl)phenyl)-3,3-difluorocyclobutane-1-carboxamide]	0.945 µM
O=C(N(CC12CCC(c3nc(C4CC4)co3)(CC1)CC2)c1cccc(-c2cnc(C3CC3)o2)c1)C12CC(F)(C1)C2 [Example 82, N-((4-(4-cyclopropyloxazol-2-yl)bicyclo[2.2.2]octan-1-yl)methyl)-N-(3-(2-cyclopropyloxazol-5-yl)phenyl)-3-fluorobicyclo[1.1.1]pentane-1-carboxamide]	0.048 µM
O=C(C1CC(F)(F)C1)N(CC12CCC(c3nc(C4CC4)co3)(CC1)CC2)c1cccc(-c2cnc(C3CC3)o2)c1 [Example 83, N-((4-(4-cyclopropyloxazol-2-yl)bicyclo[2.2.2]octan-1-yl)methyl)-N-(3-(2-cyclopropyloxazol-5-yl)phenyl)-3,3-difluorocyclobutane-1-carboxamide]	0.59 µM
COCc1coc(-c2cccc(N(CC34CCC(c5nc(C6CC6)no5)(CC3)CC4)C(=O)C3CC(F)(F)C3)c2)n1 [Example 84, N-((4-(3-cyclopropyl-1,2,4-oxadiazol-5-yl)bicyclo[2.2.2]octan-1-yl)methyl)-3,3-difluoro-N-(3-(4-(methoxymethyl)oxazol-2-yl)phenyl)cyclobutane-1-carboxamide]	0.948 µM
COCc1coc(-c2cccc(N(CC34CCC(c5nc(C6CC6)no5)(CC3)CC4)C(=O)C34CC(F)(C3)C4)c2)n1 [Example 85, N-((4-(3-cyclopropyl-1,2,4-oxadiazol-5-yl)bicyclo[2.2.2]octan-1-yl)methyl)-3-fluoro-N-(3-(4-(methoxymethyl)oxazol-2-yl)phenyl)bicyclo[1.1.1]pentane-1-carboxamide]	0.137 µM
O=C(N(CC12CCC(c3nc(C4CC4)no3)(CC1)CC2)c1cccc(-c2nnc(C3CC3)o2)c1)C12CC(F)(C1)C2 [Example 86, N-((4-(3-cyclopropyl-1,2,4-oxadiazol-5-yl)bicyclo[2.2.2]octan-1-yl)methyl)-N-(3-(5-cyclopropyl-1,3,4-oxadiazol-2-yl)phenyl)-3-fluorobicyclo[1.1.1]pentane-1-carboxamide]	0.123 µM
O=C(C1CC(F)(F)C1)N(CC12CCC(c3nc(C4CC4)no3)(CC1)CC2)c1cccc(-c2nnc(C3CC3)o2)c1 [Example 87, N-((4-(3-cyclopropyl-1,2,4-oxadiazol-5-yl)bicyclo[2.2.2]octan-1-yl)methyl)-N-(3-(5-cyclopropyl-1,3,4-oxadiazol-2-yl)phenyl)-3,3-difluorocyclobutane-1-carboxamide]	0.712 µM
CC(C)(C)c1noc(C23CCC(CN(C(=O)C45CC(F)(C4)C5)c4cccc(-c5nc(C6CC6)no5)c4)(CC2)CC3)n1 [Example 88, N-((4-(3-(tert-butyl)-1,2,4-oxadiazol-5-yl)bicyclo[2.2.2]octan-1-yl)methyl)-N-(3-(3-cyclopropyl-1,2,4-oxadiazol-5-yl)phenyl)-3-fluorobicyclo[1.1.1]pentane-1-carboxamide]	0.086 µM
CC(C)c1noc(C23CCC(CN(C(=O)C45CC(F)(C4)C5)c4cccc(-c5nc(C6CC6)no5)c4)(CC2)CC3)n1 [Example 89, N-(3-(3-cyclopropyl-1,2,4-oxadiazol-5-yl)phenyl)-3-fluoro-N-((4-(3-isopropyl-1,2,4-oxadiazol-5-yl)bicyclo[2.2.2]octan-1-yl)methyl)bicyclo[1.1.1]pentane-1-carboxamide]	0.047 µM
O=C(N(CC12CCC(c3nc(C4CCOCC4)no3)(CC1)CC2)c1cccc(-c2nc(C3CC3)no2)c1)C12CC(F)(C1)C2 [Example 90, N-(3-(3-cyclopropyl-1,2,4-oxadiazol-5-yl)phenyl)-3-fluoro-N-((4-(3-(tetrahydro-2H-pyran-4-yl)-1,2,4-oxadiazol-5-yl)bicyclo[2.2.2]octan-1-yl)methyl)bicyclo[1.1.1]pentane-1-carboxamide]	0.121 µM
O=C(N1CCCC1)N(CC12CCC(c3nc(C4CC4)no3)(CC1)CC2)c1cccc(-c2nc(C3CC3)no2)c1 [Example 91, N-((4-(3-cyclopropyl-1,2,4-oxadiazol-5-yl)bicyclo[2.2.2]octan-1-yl)methyl)-N-(3-(3-cyclopropyl-1,2,4-oxadiazol-5-yl)phenyl)pyrrolidine-1-carboxamide]	0.322 µM
CC(C)(C)CNC(=O)N(CC12CCC(c3nc(C4CC4)no3)(CC1)CC2)c1cccc(-c2nc(C3CC3)no2)c1 [Example 92, 1-((4-(3-cyclopropyl-1,2,4-oxadiazol-5-yl)bicyclo[2.2.2]octan-1-yl)methyl)-1-(3-(3-cyclopropyl-1,2,4-oxadiazol-5-yl)phenyl)-3-neopentylurea]	0.42 µM
CN(C)[C@H]1CCN(C(=O)N(CC23CCC(c4nc(C5CC5)no4)(CC2)CC3)c2cccc(-c3nc(C4CC4)no3)c2)C1 [Example 93, (S)—N-((4-(3-cyclopropyl-1,2,4-oxadiazol-5-yl)bicyclo[2.2.2]octan-1-yl)methyl)-N-(3-(3-cyclopropyl-1,2,4-oxadiazol-5-yl)phenyl)-3-(dimethylamino)pyrrolidine-1-carboxamide]	2.69 µM
CC1(NC(=O)N(CC23CCC(c4nc(C5CC5)no4)(CC2)CC3)c2cccc(-c3nc(C4CC4)no3)c2)CC1 [Example 94, 1-((4-(3-cyclopropyl-1,2,4-oxadiazol-5-yl)bicyclo[2.2.2]octan-1-yl)methyl)-1-(3-(3-cyclopropyl-1,2,4-oxadiazol-5-yl)phenyl)-3-(1-methylcyclopropyl)urea]	0.265 µM
CCNC(=O)N(CC12CCC(c3nc(C4CC4)no3)(CC1)CC2)c1cccc(-c2nc(C3CC3)no2)c1 [Example 95, 1-((4-(3-cyclopropyl-1,2,4-oxadiazol-5-yl)bicyclo[2.2.2]octan-1-yl)methyl)-1-(3-(3-cyclopropyl-1,2,4-oxadiazol-5-yl)phenyl)-3-ethylurea]	0.59 µM
COc1ccc(NC(=O)N(CC23CCC(c4nc(C5CC5)no4)(CC2)CC3)c2cccc(-c3nc(C4CC4)no3)c2)cc1 [Example 96, 1-((4-(3-cyclopropyl-1,2,4-oxadiazol-5-yl)bicyclo[2.2.2]octan-1-yl)methyl)-1-(3-(3-cyclopropyl-1,2,4-oxadiazol-5-yl)phenyl)-3-(4-methoxyphenyl)urea]	0.647 µM
O=C(N(CC12CCC(c3nc(C4CC4)cs3)(CC1)CC2)c1cccc(-c2cnc(C3CC3)o2)c1)C12CC(F)(C1)C2 [Example 97, N-(3-(2-cyclopropyloxazol-5-yl)phenyl)-N-((4-(4-cyclopropylthiazol-2-yl)bicyclo[2.2.2]octan-1-yl)methyl)-3-fluorobicyclo[1.1.1]pentane-1-carboxamide]	0.07 µM
O=C(N(CC12CCC(c3nc(C4CC4)cs3)(CC1)CC2)c1cccc(-c2nc(C3CC3)no2)c1)C12CC(F)(C1)C2 [Example 100, N-(3-(3-cyclopropyl-1,2,4-oxadiazol-5-yl)phenyl)-N-((4-(4-cyclopropylthiazol-2-yl)bicyclo[2.2.2]octan-1-yl)methyl)-3-fluorobicyclo[1.1.1]pentane-1-carboxamide]	0.164 µM
O=C(C1CC(F)(F)C1)N(CC12CCC(c3nc(C4CC4)cs3)(CC1)CC2)c1cccc(-c2nc(C3CC3)no2)c1 [Example 101, N-(3-(3-cyclopropyl-1,2,4-oxadiazol-5-yl)phenyl)-N-((4-(4-cyclopropylthiazol-2-yl)bicyclo[2.2.2]octan-1-yl)methyl)-3,3-difluorocyclobutane-1-carboxamide]	0.635 µM
O=C(N(CC12CCC(c3nc(C4CC4)no3)(CC1)CC2)c1cccc(-c2noc(C34CC(F)(C3)C4)n2)c1)C12CC(F)(C1)C2 [Example 102, N-((4-(3-cyclopropyl-1,2,4-oxadiazol-5-yl)bicyclo[2.2.2]octan-1-yl)methyl)-3-fluoro-N-(3-(5-(3-fluorobicyclo[1.1.1]pentan-1-yl)-1,2,4-oxadiazol-3-yl)phenyl)bicyclo[1.1.1]pentane-1-carboxamide]	1.04 µM
O=C(N(CC12CCC(c3nc(C4CC4)no3)(CC1)CC2)c1cccc(-c2noc(C3CC(F)(F)C3)n2)c1)C12CC(F)(C1)C2 [Example 103, N-((4-(3-cyclopropyl-1,2,4-oxadiazol-5-yl)bicyclo[2.2.2]octan-1-yl)methyl)-N-(3-(5-(3,3-difluorocyclobutyl)-1,2,4-oxadiazol-3-yl)phenyl)-3-fluorobicyclo[1.1.1]pentane-1-carboxamide]	0.227 µM
O=C(N(CC12CCC(c3nc(C4CC4)no3)(CC1)CC2)c1cccc(-c2noc(C3CC3)n2)c1)C12CC(F)(C1)C2 [Example 104, N-(3-(5-cyclopropyl-1,2,4-oxadiazol-3-yl)phenyl)-N-((4-(3-cyclopropyl-1,2,4-oxadiazol-5-yl)bicyclo[2.2.2]octan-1-yl)methyl)-3-fluorobicyclo[1.1.1]pentane-1-carboxamide]	0.06 µM
O=C(N(CC12CCC(c3nc(C4CC4)no3)(CC1)CC2)c1cccc(-c2noc(C(F)F)n2)c1)C12CC(F)(C1)C2 [Example 105, N-((4-(3-cyclopropyl-1,2,4-oxadiazol-5-yl)bicyclo[2.2.2]octan-1-yl)methyl)-N-(3-(5-(difluoromethyl)-1,2,4-oxadiazol-3-yl)phenyl)-3-fluorobicyclo[1.1.1]pentane-1-carboxamide]	0.057 µM
CC1(c2nc(-c3cccc(N(CC45CCC(c6nc(C7CC7)no6)(CC4)CC5)C(=O)C45CC(F)(C4)C5)c3)no2)CC1 [Example 106, N-((4-(3-cyclopropyl-1,2,4-oxadiazol-5-yl)bicyclo[2.2.2]octan-1-yl)methyl)-3-fluoro-N-(3-(5-(1-methylcyclopropyl)-1,2,4-oxadiazol-3-yl)phenyl)bicyclo[1.1.1]pentane-1-carboxamide]	0.058 µM
